Reference: PubChem BioAssay (NCI)
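Cultured in 96-well plates, cells were exposed to test compound for 48 hours across five concentrations. The concentration for full growth arrest is given as TGI.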

Experiments:
Assay in all cases: DTP human tumour cell line panel, 48 h
[1] = system: A549 NSCLC
[2] = system: DU-145 prostate
[3] = system: HCC-2998 colon
[4] = system: HOP-62 NSCLC
[5] = system: HOP-92 NSCLC
[6] = system: KM12 colon
[7] = system: MALME-3M melanoma
[8] = system: NCI-H460 lung
[9] = system: OVCAR-4 ovarian
[10] = system: OVCAR-5 ovarian
[11] = system: OVCAR-8 ovarian
[12] = system: SF-268 CNS
[13] = system: SF-295 CNS
[14] = system: SK-MEL-2 melanoma
[15] = system: SK-MEL-28 melanoma
[16] = system: SW-620 colon
[17] = system: UACC-257 melanoma
[18] = system: HL-60(TB) leukemia
[19] = system: LOX IMVI melanoma
[20] = system: SR leukemia

Row | Compound | TGI [1] | TGI [2] | TGI [3] | TGI [4] | TGI [5] | TGI [6] | TGI [7] | TGI [8] | TGI [9] | TGI [10] | TGI [11] | TGI [12] | TGI [13] | TGI [14] | TGI [15] | TGI [16] | TGI [17] | TGI [18] | TGI [19] | TGI [20]
1 | Cn1ccnc1SC(F)(F)c1nc2ccccc2o1 | > 100 µM | > 100 µM | > 100 µM | > 100 µM | > 100 µM | > 100 µM | > 100 µM | > 100 µM | > 100 µM | > 100 µM | > 100 µM | > 100 µM | > 100 µM | > 100 µM | > 100 µM | > 100 µM | > 100 µM |  |  | 
2 | Cc1cc(C)c2c(=O)n(CN3CCN(c4ccccc4)CC3)sc2n1 | > 100 µM | 63.3 µM | > 100 µM | > 100 µM | > 100 µM | > 100 µM | > 100 µM | > 100 µM | > 100 µM | 49.2 µM | > 100 µM | > 100 µM | > 100 µM | 33.9 µM | > 100 µM | > 100 µM | > 100 µM | 41.5 µM | 44.1 µM | 
3 | Cc1cc(C)nc(NC(=S)Nc2cccc(Cl)c2)c1 | > 100 µM | > 100 µM | > 100 µM | > 100 µM |  | > 100 µM | > 100 µM | > 100 µM | > 100 µM | > 100 µM | > 100 µM | > 100 µM | > 100 µM | > 100 µM | > 100 µM | > 100 µM | > 100 µM | > 100 µM | > 100 µM | > 100 µM
4 | Nc1nc(N)nc(-c2cnc3ccccc3c2)n1 | > 100 µM | > 100 µM | > 100 µM | > 100 µM | > 100 µM | > 100 µM | > 100 µM | > 100 µM |  | > 100 µM | > 100 µM | > 100 µM | > 100 µM | > 100 µM | > 100 µM | > 100 µM | > 100 µM |  | > 100 µM | > 100 µM
5 | CC(=O)OC[C@@]12CC[C@H]3C(C)(C)CCC[C@]3(C)[C@H]1C[C@@H](C1=CC(=O)O[C@H]1O)O2 | 20.4 µM | 20.4 µM | 3.12 µM | 23 µM |  | 35.8 µM |  | 29 µM |  | 37.8 µM | 13.7 µM | 28.1 µM | 21.3 µM | 4.37 µM | 4.36 µM | 19.9 µM | 9.26 µM |  | 3.42 µM | 4.08 µM
6 | Nc1ccc(S(=O)(=O)Nc2nc3ccccc3nc2Nc2ccc(S(N)(=O)=O)cc2)cc1 | > 100 µM | > 100 µM |  | > 100 µM | > 100 µM | > 100 µM | 97.4 µM | > 100 µM | 49.7 µM | > 100 µM | > 100 µM | 60.7 µM | 72.1 µM | 45.6 µM | > 100 µM | > 100 µM | > 100 µM | 63.2 µM | 38.3 µM | > 100 µM
7 | O=c1oc2ccccc2c(-c2ccc(O)cc2)c1Oc1ccc(Cl)cc1 | 47.3 µM | > 100 µM | 46.1 µM |  | 52.9 µM | > 100 µM | 55 µM | 54.4 µM | > 100 µM | > 100 µM | 69.7 µM | 75.9 µM | 60.6 µM | 54.2 µM | > 100 µM | > 100 µM | 83.8 µM |  | 62 µM | 51.9 µM
8 | COc1cccc(N=N/C(=N/NC(=O)c2cc(Cl)ccc2O)c2ccc(N(CCC#N)CCC#N)cc2C)c1 | > 100 µM | > 100 µM | 92 µM | > 100 µM |  | > 100 µM | 48.7 µM | > 100 µM | > 100 µM | > 100 µM | 55.3 µM | > 100 µM | > 100 µM | > 100 µM |  |  | 59.5 µM |  |  | > 100 µM
9 | CSc1nc(C)cc(N(C)c2ccccc2)n1 | > 100 µM | > 100 µM | > 100 µM | > 100 µM |  | 20 µM | > 100 µM | > 100 µM | > 100 µM | > 100 µM | 93 µM | > 100 µM | > 100 µM | > 100 µM | > 100 µM | > 100 µM | 84 µM | 61.9 µM | > 100 µM | 60.7 µM
10 | CCOC(=O)CC/C(C)=N\n1c(Cc2ccc(Cl)cc2)n[nH]c1=O | > 100 µM | > 100 µM | > 100 µM | > 100 µM |  | > 100 µM | > 100 µM | > 100 µM |  | 55.5 µM | > 100 µM | > 100 µM | > 100 µM | > 100 µM | > 100 µM | > 100 µM | > 100 µM | > 100 µM | > 100 µM | > 100 µM
11 | CCOP(=O)(OCC)/C(=C/c1ccccc1)CC(C)=O | > 100 µM | > 100 µM | > 100 µM | > 100 µM | > 100 µM | > 100 µM | > 100 µM | > 100 µM | > 100 µM | > 100 µM | > 100 µM | > 100 µM | > 100 µM | > 100 µM | > 100 µM | > 100 µM | > 100 µM | 68.7 µM | > 100 µM | 
12 | CC(C)=CCC/C(C)=C/CC/C(C)=C/[C@@H]1[C@@H](CO)[C@]1(C)CC/C=C(\C)CCC=C(C)C | > 100 µM | > 100 µM |  | > 100 µM | 38.2 µM | > 100 µM | > 100 µM | > 100 µM | > 100 µM | > 100 µM | 32.7 µM | 40.8 µM | > 100 µM | > 100 µM | > 100 µM | 66.9 µM | > 100 µM |  | 23.8 µM | 55 µM
13 | COc1cc(/C=C2/C[C@H]3[C@@H]4CCC5=CC(=O)CC[C@]5(C)[C@H]4CC[C@]3(C)NC2=O)cc(OC)c1OC | > 100 µM | > 100 µM | > 100 µM | > 100 µM | 39.6 µM | > 100 µM | 72.2 µM | > 100 µM | > 100 µM | 57.7 µM | 70.7 µM | > 100 µM | 77.7 µM | > 100 µM | > 100 µM | > 100 µM | > 100 µM | 45.3 µM |  | 
